The target in assay [1] is T1, TNFα (Homo sapiens, UniProt P01375). Nature of the assay: Fluorescence polarisation assay: inhibition of binding of fluorescence conjugate to TNFα. To be noted: 10 nM TNFα, 10 nM fluorescence conjugate, 60 minutes pre-incubation, then 20 hours at ambient temperature. As to the method:
Fluorescence Polarisation Assay
Inhibition of Binding of Fluorescence Conjugate to TNFα
Compounds were tested at 10 concentrations starting from 25 μM in a final assay concentration of 5% DMSO, by pre-incubation with TNFα for 60 minutes at ambient temperature in 20 mM Tris, 150 mM NaCl, 0.05% Tween 20, before addition of the fluorescence conjugate and a further incubation for 20 hours at ambient temperature. The final concentrations of TNFα and the fluorescence conjugate were 10 nM and 10 nM respectively in a total assay volume of 25 μL. Plates were read on a plate reader capable of detecting fluorescence polarisation (e.g. an Analyst HT plate reader; or an Envision plate reader). An IC50 value was calculated using XLfit™ (4 parameter logistic model) in ActivityBase.

The target of assay [2] is T1, TNFα. Nature of the assay: Reporter gene assay (HEK-293 bioassay): inhibition of TNFα-induced NF-κB activation in HEK-Blue CD40L cells. Type of assay: cell-based. To be noted: 0.5 ng/mL TNFα, 60 minutes preincubation, 18 h incubation, read-out: IC50 value, inhibition of TNFα-induced NF-κB activation (SEAP reporter). From the text:
The compounds in accordance with the present invention potently neutralise the activity of TNFα in a commercially available HEK-293 derived reporter cell line known as HEK-Blue™ CD40L. This is a stable HEK-293 transfected cell line expressing SEAP (secreted embryonic alkaline phosphatase) under the control of the IFNβ minimal promoter fused to five NF-κB binding sites. Secretion of SEAP by these cells is stimulated in a concentration-dependent manner by TNFα.
Inhibition of TNFα-induced NF-κB Activation
Stimulation of HEK-293 cells by TNFα leads to activation of the NF-κB pathway. The reporter cell line used to determine TNFα activity was purchased from InvivoGen. HEK-Blue™ CD40L is a stable HEK-293 transfected cell line expressing SEAP (secreted embryonic alkaline phosphatase) under the control of the IFNβ minimal promoter fused to five NF-κB binding sites. Secretion of SEAP by these cells is stimulated in a dose-dependent manner by TNFα, with an EC50 of 0.5 ng/mL for human TNFα. […] SEAP activity was determined in the supernatant using a colorimetric substrate, e.g. QUANTI-Blue™ or HEK-Blue™ Detection media (InvivoGen). Percentage inhibitions for compound dilutions were calculated between a DMSO control and maximum inhibition (by excess control compound) and an IC50 value calculated using XLfit™ (4 parameter logistic model) in ActivityBase.
(In general: A reporter such as luciferase makes a cellular process visible.)

The record followed here is patent US10669263B2, “Substituted benzimidazole derivative as a modulator of TNF activity” (UCB Biopharma SRL, priority 2016, dated 2020).

Several values for one entry are separate records, joined by “and”; a condition that tells them apart may be missing. Equal values may be shown once.

T1 sequence (P01375 77-233 limits assumed): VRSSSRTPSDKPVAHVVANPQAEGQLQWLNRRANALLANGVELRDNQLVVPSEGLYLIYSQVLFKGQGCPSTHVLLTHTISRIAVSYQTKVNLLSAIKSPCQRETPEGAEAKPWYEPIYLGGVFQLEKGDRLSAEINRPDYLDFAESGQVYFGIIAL

One may read the IC50 as the concentration needed to halve the response being measured. Regarding `Cc1nc2ccc(-c3cnc(C(C)(C)O)nc3)cc2n1Cc1c(F)cccc1OC(F)F` [Example 1, 2-(5-{1-[2-(Difluoromethoxy)-6-fluorobenzyl]-2-methyl-1H-benzimidazol-6-yl}-pyrimidin-2-yl)propan-2-ol], the concentration for half-maximal inhibition (IC50) at TNFα [1] is < 20 nM and 0.1 to 20 nM; at TNFα [2], < 50 nM and 0.5 to 50 nM.
